Source: PubChem BioAssay (NCI)
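Compound exposure: 48 hours, 5 concentrations, 96-well plates. The concentration for 50% growth inhibition is given as GI50. TGI marks complete inhibition of growth.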

How the values were obtained:
Assay in all cases: NCI tumour cell line growth inhibition, 48 h
NCI-H460 lung = system: NCI-H460 lung
SF-268 CNS = system: SF-268 CNS
NCI/ADR-RES ovarian = system: NCI/ADR-RES ovarian
DU-145 prostate = system: DU-145 prostate
RPMI-8226 leukemia = system: RPMI-8226 leukemia
HS 578T breast = system: HS 578T breast
OVCAR-5 ovarian = system: OVCAR-5 ovarian
A549 NSCLC = system: A549 NSCLC
T-47D breast = system: T-47D breast
COLO 205 colon = system: COLO 205 colon
NCI-H226 lung = system: NCI-H226 lung
HCC-2998 colon = system: HCC-2998 colon
SK-MEL-5 melanoma = system: SK-MEL-5 melanoma
HOP-92 NSCLC = system: HOP-92 NSCLC
HOP-62 NSCLC = system: HOP-62 NSCLC
EKVX NSCLC = system: EKVX NSCLC
UACC-257 melanoma = system: UACC-257 melanoma
SK-OV-3 ovarian = system: SK-OV-3 ovarian
NCI-H522 lung = system: NCI-H522 lung
786-0 renal = system: 786-0 renal
K-562 leukemia = system: K-562 leukemia
CCRF-CEM leukemia = system: CCRF-CEM leukemia
SR leukemia = system: SR leukemia
SF-539 CNS = system: SF-539 CNS
NCI-H23 lung = system: NCI-H23 lung
MDA-MB-468 breast = system: MDA-MB-468 breast
M14 melanoma = system: M14 melanoma
SW-620 colon = system: SW-620 colon
MDA-MB-435 = system: MDA-MB-435

`O=C(CS(=O)(=O)c1oc(-c2ccc(Cl)cc2)nc1S(=O)(=O)c1ccccc1)N1CCCC1` was tested, and the GI50 (NCI-H460 lung) was 12.3 µM, the TGI (NCI-H460 lung) was 26.3 µM and the GI50 (SF-268 CNS) was 14.9 µM. It also gave a TGI (SF-268 CNS) of 43.2 µM, a GI50 (NCI/ADR-RES ovarian) of 15.9 µM and a TGI (NCI/ADR-RES ovarian) of 70.5 µM. It also gave a GI50 (DU-145 prostate) of 1.76 µM, a TGI (DU-145 prostate) of 3.37 µM and a GI50 (RPMI-8226 leukemia) of 2.99 µM. The TGI (RPMI-8226 leukemia) was > 100 µM, the GI50 (HS 578T breast) was 7.21 µM and the TGI (HS 578T breast) was 53.9 µM. The GI50 (OVCAR-5 ovarian) was 13.7 µM, the TGI (OVCAR-5 ovarian) was 27.4 µM and the GI50 (A549 NSCLC) was 14.3 µM. For the same compound, the TGI (A549 NSCLC) was 31.6 µM, the GI50 (T-47D breast) was 1.8 µM and the TGI (T-47D breast) was 4.47 µM. It also gave a GI50 (COLO 205 colon) of 2.14 µM, a TGI (COLO 205 colon) of 4.68 µM and a GI50 (NCI-H226 lung) of 15.1 µM. The TGI (NCI-H226 lung) was 39 µM, the GI50 (HCC-2998 colon) was 14.5 µM and the TGI (HCC-2998 colon) was 28.7 µM. The GI50 (SK-MEL-5 melanoma) was 14.3 µM, the TGI (SK-MEL-5 melanoma) was 27.6 µM and the GI50 (HOP-92 NSCLC) was 2.38 µM. It also gave a TGI (HOP-92 NSCLC) of 4.68 µM, a GI50 (HOP-62 NSCLC) of 17.8 µM and a TGI (HOP-62 NSCLC) of 34 µM. For the same compound, the GI50 (EKVX NSCLC) was 2.03 µM, the TGI (EKVX NSCLC) was 4.9 µM and the GI50 (UACC-257 melanoma) was 1.88 µM. The TGI (UACC-257 melanoma) was 3.62 µM, the GI50 (SK-OV-3 ovarian) was 18 µM and the TGI (SK-OV-3 ovarian) was 33 µM. The GI50 (NCI-H522 lung) was 1.11 µM, the TGI (NCI-H522 lung) was 2.53 µM and the GI50 (786-0 renal) was 1.51 µM. The TGI (786-0 renal) was 3.01 µM, the GI50 (K-562 leukemia) was 0.707 µM and the TGI (K-562 leukemia) was > 100 µM. For the same compound, the GI50 (CCRF-CEM leukemia) was 0.4 µM, the TGI (CCRF-CEM leukemia) was 2.36 µM and the GI50 (SR leukemia) was 2.6 µM. The TGI (SR leukemia) was > 100 µM, the GI50 (SF-539 CNS) was 1.64 µM and the TGI (SF-539 CNS) was 2.99 µM. The GI50 (NCI-H23 lung) was 11.4 µM, the TGI (NCI-H23 lung) was 26.8 µM and the GI50 (MDA-MB-468 breast) was 1.08 µM. It also gave a TGI (MDA-MB-468 breast) of 2.49 µM, a GI50 (M14 melanoma) of 1.88 µM and a TGI (M14 melanoma) of 4.07 µM. The GI50 (SW-620 colon) was 1.06 µM, the TGI (SW-620 colon) was 2.41 µM and the GI50 (MDA-MB-435) was 2.88 µM. The TGI (MDA-MB-435) was 13.6 µM.
